Experiments:
Format in all cases: cell-based
Details in all cases: Homo sapiens
CCRF-CEM = test: NCI-60 SRB growth inhibition, one-dose and five-dose
HL-60(TB) = test: cells
K-562 = test: NCI-60 SRB growth inhibition, one-dose and five-dose
MOLT-4 = test: as above
SR = test: as above
A549/ATCC = test: as above
HOP-62 = test: as above
HOP-92 = test: as above
NCI-H226 = test: as above
NCI-H322M = test: as above
NCI-H460 = test: as above
NCI-H522 = test: as above
COLO 205 = test: as above
HT29 = test: as above
SW-620 = test: as above
SF-268 = test: as above
SF-295 = test: as above
SF-539 = test: as above
SNB-19 = test: as above
SNB-75 = test: as above
U251 = test: as above
LOX IMVI = test: as above
MALME-3M = test: as above
M14 = test: as above
MDA-MB-435 = test: as above
SK-MEL-28 = test: as above
SK-MEL-5 = test: as above
UACC-62 = test: as above
IGROV1 = test: as above
OVCAR-4 = test: as above
OVCAR-5 = test: as above
NCI/ADR-RES = test: as above
SK-OV-3 = test: as above
786-0 = test: as above
A498 = test: as above
RXF 393 = test: as above
TK-10 = test: as above
PC-3 = test: as above
DU-145 = test: as above
HS 578 T = test: as above
BT-549 = test: as above
MDA-MB-468 = test: as above
[1] = read-out: percent growth inhibition

Compound: CC(=O)Nc1ccc(CNc2cccc(C(=O)/C=C/c3cccnc3)c2)cc1 [Compound 5b, (E)-N-(4-(((3–(3-(pyridin-3-yl)acryloyl)phenyl)amino)methyl)phenyl)acetamide]
- GI50 (CCRF-CEM): 2.8 µM
- inhibition at 10 µM (CCRF-CEM; [1]): 141%
- GI50 (HL-60(TB); HL-60): 2.78 µM
- inhibition at 10 µM (HL-60(TB); HL-60, read-out: percent growth inhibition): 144%
- GI50 (K-562; K562): 2.52 µM
- inhibition at 10 µM (K-562; K562, read-out: percent growth inhibition): 99.8%
- GI50 (MOLT-4; MOLT-4): 2.88 µM
- inhibition at 10 µM (MOLT-4; MOLT-4, read-out: percent growth inhibition): 128%
- GI50 (SR): 2.01 µM
- GI50 (A549/ATCC; A549): 14.9 µM
- inhibition at 10 µM (A549/ATCC; A549, read-out: percent growth inhibition): 27.8%
- GI50 (HOP-62; HOP-62): 12.7 µM
- inhibition at 10 µM (HOP-62; HOP-62, read-out: percent growth inhibition): 74%
- GI50 (HOP-92; HOP-92): 8.47 µM
- inhibition at 10 µM (HOP-92; HOP-92, read-out: percent growth inhibition): 68.5%
- GI50 (NCI-H226; NCI-H226): 2.76 µM
- inhibition at 10 µM (NCI-H226; NCI-H226, read-out: percent growth inhibition): 116%
- GI50 (NCI-H322M): 13.7 µM
- inhibition at 10 µM (NCI-H322M; [1]): 29.6%
- GI50 (NCI-H460; NCI-H460): 2.87 µM
- inhibition at 10 µM (NCI-H460; NCI-H460, read-out: percent growth inhibition): 107%
- GI50 (NCI-H522; NCI-H522): 1.67 µM
- inhibition at 10 µM (NCI-H522; NCI-H522, read-out: percent growth inhibition): 165%
- GI50 (COLO 205; COLO 205): 10.9 µM
- inhibition at 10 µM (COLO 205; COLO 205, read-out: percent growth inhibition): 156%
- GI50 (HT29; HT-29): 2.19 µM
- inhibition at 10 µM (HT29; HT-29, read-out: percent growth inhibition): 182%
- GI50 (SW-620; SW-620): 1.83 µM
- inhibition at 10 µM (SW-620; SW-620, read-out: percent growth inhibition): 169%
- GI50 (SF-268; SF-268): 13.6 µM
- inhibition at 10 µM (SF-268; SF-268, read-out: percent growth inhibition): 88.6%
- GI50 (SF-295; SF-295): 10.3 µM
- inhibition at 10 µM (SF-295; SF-295, read-out: percent growth inhibition): 91.9%
- GI50 (SF-539; SF-539): 6.35 µM
- inhibition at 10 µM (SF-539; SF-539, read-out: percent growth inhibition): 170%
- GI50 (SNB-19; SNB-19): 3.61 µM
- inhibition at 10 µM (SNB-19; SNB-19, read-out: percent growth inhibition): 99.1%
- GI50 (SNB-75; SNB-75): 8.99 µM
- inhibition at 10 µM (SNB-75; SNB-75, read-out: percent growth inhibition): 31.8%
- GI50 (U251; U-251): 1.9 µM
- inhibition at 10 µM (U251; U-251, read-out: percent growth inhibition): 166%
- GI50 (LOX IMVI): 1.65 µM
- inhibition at 10 µM (LOX IMVI; [1]): 199%
- GI50 (MALME-3M): 2.19 µM
- inhibition at 10 µM (MALME-3M; [1]): 132%
- GI50 (M14; M14): 2.91 µM
- inhibition at 10 µM (M14; M14, read-out: percent growth inhibition): 141%
- GI50 (MDA-MB-435; MDA-MB-435): 2.28 µM
- inhibition at 10 µM (MDA-MB-435; MDA-MB-435, read-out: percent growth inhibition): 124%
- GI50 (SK-MEL-28; SK-MEL-28): 1.96 µM
- inhibition at 10 µM (SK-MEL-28; SK-MEL-28, read-out: percent growth inhibition): 166%
- GI50 (SK-MEL-5; SK-MEL-5): 6.51 µM
- inhibition at 10 µM (SK-MEL-5; SK-MEL-5, read-out: percent growth inhibition): 174%
- GI50 (UACC-62; UACC-62): 5.03 µM
- inhibition at 10 µM (UACC-62; UACC-62, read-out: percent growth inhibition): 162%
- GI50 (IGROV1; IGROV-1): 2.3 µM
- inhibition at 10 µM (IGROV1; IGROV-1, read-out: percent growth inhibition): 123%
- GI50 (OVCAR-4; OVCAR-4): 8.63 µM
- inhibition at 10 µM (OVCAR-4; OVCAR-4, read-out: percent growth inhibition): 88.5%
- GI50 (OVCAR-5; OVCAR-5): 3.44 µM
- inhibition at 10 µM (OVCAR-5; OVCAR-5, read-out: percent growth inhibition): 103%
- GI50 (NCI/ADR-RES): 3.12 µM
- inhibition at 10 µM (NCI/ADR-RES; [1]): 91.1%
- GI50 (SK-OV-3; SK-OV-3): 13.9 µM
- inhibition at 10 µM (SK-OV-3; SK-OV-3, read-out: percent growth inhibition): 15.2%
- GI50 (786-0; 786-0): 3.43 µM
- inhibition at 10 µM (786-0; 786-0, read-out: percent growth inhibition): 160%
- GI50 (A498; A498): 13.4 µM
- inhibition at 10 µM (A498; A498, read-out: percent growth inhibition): 17.5%
- GI50 (RXF 393; RXF 393): 3.09 µM
- inhibition at 10 µM (RXF 393; RXF 393, read-out: percent growth inhibition): 194%
- GI50 (TK-10; TK-10): 2.53 µM
- inhibition at 10 µM (TK-10; TK-10, read-out: percent growth inhibition): 85.3%
- GI50 (PC-3; PC-3): 3.05 µM
- inhibition at 10 µM (PC-3; PC-3, read-out: percent growth inhibition): 98.8%
- GI50 (DU-145; DU-145): 5.15 µM
- inhibition at 10 µM (DU-145; DU-145, read-out: percent growth inhibition): 92.2%
- GI50 (HS 578 T): 2.57 µM
- inhibition at 10 µM (HS 578 T; [1]): 88.3%
- GI50 (BT-549; BT-549): 2.78 µM
- inhibition at 10 µM (BT-549; BT-549, read-out: percent growth inhibition): 174%
- GI50 (MDA-MB-468; MDA-MB-468): 1.67 µM
- inhibition at 10 µM (MDA-MB-468; MDA-MB-468, read-out: percent growth inhibition): 175%
